Experimental data: patent US20260209193A1, “NOVEL INHIBITORS OF DNA DAMAGE RESPONSES FOR CANCER THERAPY” (The Regents of the University of California, priority 2022, published 2026)

What was measured:
Type in all cases: cell-based
PARP1 = target: T1, PARP1 (Homo sapiens, UniProt P09874); assay: PARP1 trapping, chromatin fractionation (chromatin-bound fraction); conditions: PC3 cells; for PARP1 trapped on DNA lesions: 0.3 μM
T1 construct: endogenous in cells; host or cells: PC3
How it was run: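 PARP1 trapping was measured as PARP1 in the chromatin-bound fraction across six lines: SUM149PT-BRCA1mut/BRCA1rev (breast), UWB1.289 BRCA1-null and BRCA1-restored (ovarian), HR-deficient C4-2B/MR (Rad51 mutant) and HR-proficient PC3 (prostate).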

[1] = system: PC3 and SUM149PT-BRCA1mut cells; assay: CCK8 cell killing screen of JC099 analogs
Text: Structure optimization represents a critical step towards identifying candidate compounds for preclinical and clinical development and contributes to structure-function analysis. […] Cell killing potency was detected by a CCK8 assay in prostate and breast cancer cells. […]
The cell killing potency was detected by a CCK8 assay in prostate and breast cancer cells.

ATR = target: T2, ATR (Homo sapiens, UniProt Q13535); assay: ATR-mediated signaling: phosphorylation of Rad17 Ser 645 and CHK1 Ser 345 in cells; conditions: for Olaparib induced phosphorylation of Rad17 at Ser 645 and CHK1 at Ser 345: 1 μM and 2 μM, PC3 cells; for ATR inhibition potency relative to JC099 (OLA- or UV-induced phosphorylation of Rad17 and CHK1): compared to JC099
T2 construct: endogenous in cells; host or cells: PC3, C4-2B/MR, SUM149PT-BRCA1rev, UWB1.289+BRCA1, MDA-MB-231
Experimental: PARP inhibitor-resistant cells are increasingly dependent on ATR for survival, and ATR inhibition disrupts restored HR and fork protection pathways in PARP inhibitor resistant BRCA-deficient cancer cells. For ATR kinase in vitro assays, ATR was immunoprecipitated with 3 μg of anti-ATR antibody (Bethyl Laboratories, A300-137A) from 1 mg of cell lysate. […] The IC50 was determined by the enzyme profiling service of Eurofins Cerep (France). […] The phosphorylation of CHK1 at Ser 345 sites was used as a bio-marker of ATR-mediated signaling pathway. The phosphorylation of Rad17 at Ser 645, which is a substrate of ATR, was also examined.
ATR inhibition was assessed in C4-2B/MR cells. Considering ATM is a homologous protein of ATR, we also detected the effect of JC046 analogs on the phosphorylation of KAP1 at Ser 824 and CHK2 at Thr 68 sites, which were used as markers of ATM signaling pathway.

T1 sequence (P09874 whole entry, species assumed): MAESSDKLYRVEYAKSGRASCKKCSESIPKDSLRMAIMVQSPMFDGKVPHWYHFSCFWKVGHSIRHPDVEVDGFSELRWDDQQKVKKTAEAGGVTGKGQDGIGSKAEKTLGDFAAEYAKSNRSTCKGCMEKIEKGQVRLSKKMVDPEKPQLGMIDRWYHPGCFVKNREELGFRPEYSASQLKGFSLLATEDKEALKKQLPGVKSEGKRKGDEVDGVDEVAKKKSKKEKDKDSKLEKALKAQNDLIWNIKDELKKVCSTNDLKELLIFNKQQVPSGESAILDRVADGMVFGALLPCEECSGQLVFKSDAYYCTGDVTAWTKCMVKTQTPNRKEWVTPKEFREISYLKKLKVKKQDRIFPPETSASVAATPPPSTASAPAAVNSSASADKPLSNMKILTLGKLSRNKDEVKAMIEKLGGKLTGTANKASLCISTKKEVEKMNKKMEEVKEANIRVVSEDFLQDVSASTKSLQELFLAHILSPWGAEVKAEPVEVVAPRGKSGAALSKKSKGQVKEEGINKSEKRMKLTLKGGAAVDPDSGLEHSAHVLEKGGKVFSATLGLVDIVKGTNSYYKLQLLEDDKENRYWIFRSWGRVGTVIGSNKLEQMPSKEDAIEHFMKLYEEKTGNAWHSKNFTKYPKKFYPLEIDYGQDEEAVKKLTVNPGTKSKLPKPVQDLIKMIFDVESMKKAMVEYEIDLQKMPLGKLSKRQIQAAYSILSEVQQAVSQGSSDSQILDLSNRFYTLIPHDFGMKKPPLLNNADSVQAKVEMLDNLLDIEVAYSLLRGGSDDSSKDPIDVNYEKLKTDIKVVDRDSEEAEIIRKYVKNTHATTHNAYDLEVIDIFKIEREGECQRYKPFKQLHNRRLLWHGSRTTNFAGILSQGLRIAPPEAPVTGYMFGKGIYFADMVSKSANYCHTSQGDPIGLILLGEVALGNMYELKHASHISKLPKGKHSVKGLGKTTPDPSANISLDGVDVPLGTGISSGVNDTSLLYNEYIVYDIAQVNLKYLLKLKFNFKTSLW
T2 sequence (Q13535 whole entry): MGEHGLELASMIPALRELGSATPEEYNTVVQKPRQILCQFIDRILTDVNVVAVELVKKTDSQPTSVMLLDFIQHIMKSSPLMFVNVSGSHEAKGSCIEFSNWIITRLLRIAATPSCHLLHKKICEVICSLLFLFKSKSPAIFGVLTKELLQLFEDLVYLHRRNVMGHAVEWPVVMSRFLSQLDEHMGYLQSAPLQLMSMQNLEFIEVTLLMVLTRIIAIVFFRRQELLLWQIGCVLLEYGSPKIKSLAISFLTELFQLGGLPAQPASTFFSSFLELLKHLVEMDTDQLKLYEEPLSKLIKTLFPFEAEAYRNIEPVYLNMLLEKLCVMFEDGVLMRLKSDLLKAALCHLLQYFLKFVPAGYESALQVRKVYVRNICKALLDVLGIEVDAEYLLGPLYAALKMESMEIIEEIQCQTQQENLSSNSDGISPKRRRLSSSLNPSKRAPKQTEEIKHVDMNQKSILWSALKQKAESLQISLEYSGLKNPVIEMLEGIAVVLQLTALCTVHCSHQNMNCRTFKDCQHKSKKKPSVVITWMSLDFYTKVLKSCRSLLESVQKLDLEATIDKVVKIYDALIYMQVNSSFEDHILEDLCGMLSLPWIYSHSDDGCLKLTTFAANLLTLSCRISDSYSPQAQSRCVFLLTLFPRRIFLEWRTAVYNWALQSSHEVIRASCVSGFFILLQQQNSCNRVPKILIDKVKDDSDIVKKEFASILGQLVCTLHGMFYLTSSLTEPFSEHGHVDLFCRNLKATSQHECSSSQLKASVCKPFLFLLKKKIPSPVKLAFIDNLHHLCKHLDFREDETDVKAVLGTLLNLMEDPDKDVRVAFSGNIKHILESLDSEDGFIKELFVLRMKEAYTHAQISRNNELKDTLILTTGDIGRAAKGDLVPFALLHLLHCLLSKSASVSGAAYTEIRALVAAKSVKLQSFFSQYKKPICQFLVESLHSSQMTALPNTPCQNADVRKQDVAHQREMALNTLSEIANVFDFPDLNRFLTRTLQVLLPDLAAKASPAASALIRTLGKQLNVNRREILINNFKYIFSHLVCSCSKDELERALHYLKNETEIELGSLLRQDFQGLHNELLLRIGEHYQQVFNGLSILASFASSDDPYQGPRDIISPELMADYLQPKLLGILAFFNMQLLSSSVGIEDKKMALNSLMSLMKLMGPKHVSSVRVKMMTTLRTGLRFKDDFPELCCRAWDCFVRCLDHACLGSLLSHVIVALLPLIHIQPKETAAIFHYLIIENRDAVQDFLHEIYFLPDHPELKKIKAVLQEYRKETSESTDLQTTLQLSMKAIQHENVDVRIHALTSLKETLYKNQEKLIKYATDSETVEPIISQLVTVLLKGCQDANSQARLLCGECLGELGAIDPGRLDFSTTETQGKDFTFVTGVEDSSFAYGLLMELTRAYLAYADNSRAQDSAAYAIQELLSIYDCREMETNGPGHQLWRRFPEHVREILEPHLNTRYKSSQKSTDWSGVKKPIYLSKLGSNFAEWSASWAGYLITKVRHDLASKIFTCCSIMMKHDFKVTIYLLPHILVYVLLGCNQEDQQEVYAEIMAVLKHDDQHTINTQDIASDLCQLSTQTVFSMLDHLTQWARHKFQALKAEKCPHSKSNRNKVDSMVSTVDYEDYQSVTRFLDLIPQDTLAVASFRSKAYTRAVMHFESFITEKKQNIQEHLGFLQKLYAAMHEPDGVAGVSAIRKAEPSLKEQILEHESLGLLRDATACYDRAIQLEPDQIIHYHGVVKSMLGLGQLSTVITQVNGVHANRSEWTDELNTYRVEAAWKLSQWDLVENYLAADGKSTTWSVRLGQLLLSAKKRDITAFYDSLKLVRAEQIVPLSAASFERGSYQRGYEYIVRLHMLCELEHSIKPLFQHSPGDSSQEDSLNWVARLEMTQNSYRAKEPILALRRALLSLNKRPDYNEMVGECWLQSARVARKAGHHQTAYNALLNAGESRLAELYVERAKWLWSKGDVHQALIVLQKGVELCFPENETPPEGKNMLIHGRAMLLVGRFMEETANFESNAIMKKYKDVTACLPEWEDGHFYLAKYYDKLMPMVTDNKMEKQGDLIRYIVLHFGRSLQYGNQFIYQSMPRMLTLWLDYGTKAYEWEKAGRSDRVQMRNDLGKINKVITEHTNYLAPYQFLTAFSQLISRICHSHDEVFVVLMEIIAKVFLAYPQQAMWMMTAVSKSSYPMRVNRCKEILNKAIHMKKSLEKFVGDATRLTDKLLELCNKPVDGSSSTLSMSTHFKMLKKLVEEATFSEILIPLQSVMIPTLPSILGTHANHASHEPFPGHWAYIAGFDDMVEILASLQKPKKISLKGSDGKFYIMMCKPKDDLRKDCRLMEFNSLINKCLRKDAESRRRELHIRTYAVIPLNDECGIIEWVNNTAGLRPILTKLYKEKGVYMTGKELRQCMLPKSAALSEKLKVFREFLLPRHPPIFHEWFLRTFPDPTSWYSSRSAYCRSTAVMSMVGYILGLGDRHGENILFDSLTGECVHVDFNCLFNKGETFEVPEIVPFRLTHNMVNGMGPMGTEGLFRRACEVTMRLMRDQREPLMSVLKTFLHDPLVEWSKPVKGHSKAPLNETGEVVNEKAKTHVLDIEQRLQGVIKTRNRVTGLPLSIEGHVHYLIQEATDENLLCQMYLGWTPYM
T2 sequence (Q8WXE1 whole entry partner): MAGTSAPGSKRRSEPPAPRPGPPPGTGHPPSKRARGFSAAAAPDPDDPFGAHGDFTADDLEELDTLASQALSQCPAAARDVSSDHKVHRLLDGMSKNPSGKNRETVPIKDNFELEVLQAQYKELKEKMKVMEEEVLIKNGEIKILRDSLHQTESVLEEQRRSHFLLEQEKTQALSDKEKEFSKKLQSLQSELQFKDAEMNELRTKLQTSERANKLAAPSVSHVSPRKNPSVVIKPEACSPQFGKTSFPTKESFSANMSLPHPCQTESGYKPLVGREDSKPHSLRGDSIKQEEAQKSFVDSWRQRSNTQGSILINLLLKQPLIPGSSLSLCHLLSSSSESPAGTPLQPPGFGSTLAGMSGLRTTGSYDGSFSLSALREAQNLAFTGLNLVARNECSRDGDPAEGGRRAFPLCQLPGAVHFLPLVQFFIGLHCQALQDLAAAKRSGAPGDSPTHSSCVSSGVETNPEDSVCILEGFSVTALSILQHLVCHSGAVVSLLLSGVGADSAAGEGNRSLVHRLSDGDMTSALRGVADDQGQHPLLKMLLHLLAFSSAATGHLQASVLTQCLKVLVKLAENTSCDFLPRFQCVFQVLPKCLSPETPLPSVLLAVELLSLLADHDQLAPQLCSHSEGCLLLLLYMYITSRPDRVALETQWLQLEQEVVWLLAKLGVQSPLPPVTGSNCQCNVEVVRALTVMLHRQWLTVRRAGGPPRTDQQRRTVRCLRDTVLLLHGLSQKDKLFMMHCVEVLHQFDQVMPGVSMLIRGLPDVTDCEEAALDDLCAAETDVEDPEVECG

| SMILES | PARP1 trapped on DNA lesions (PARP1) | cell killing potency relative to JC099 [1] | Olaparib induced phosphorylation of Rad17 at Ser 645 and CHK1 at Ser 345 (ATR) | PARP1-trapping potency relative to JC099 (PARP1 in the chromatin-bound fraction) (PARP1) | ATR inhibition potency relative to JC099 (OLA- or UV-induced phosphorylation of Rad17 and CHK1) (ATR) |
| --- | --- | --- | --- | --- | --- |
| O=C(CN1CCCC1)Nc1ccc(C(=O)NC2C/C(=C\c3ccc(F)c(F)c3)C(=O)/C(=C/c3ccc(F)c(F)c3)C2)cc1 (stereo not shown) [JCS046, N-(3,5-bis((E)-3,4-difluorobenzylidene)-4-oxocyclohexyl)-4-(2-(pyrrolidin-1-yl)acetamido)benzamide] | trapped | higher cell killing potency than JC099 | – | – | – |
| O=C1/C(=C/c2cc(Cl)cc(Cl)c2)CC(NC(=O)c2ccc(OCCN3CCCCC3)cc2)C/C1=C\c1cc(Cl)cc(Cl)c1 (stereo not shown) [JCS061, N-(3,5-Bis((E)-3,5-dichlorobenzylidene)-4-oxocyclohexyl)-4-(2-(piperidin-1-yl)ethoxy)benzamide] | trapped | – | inhibited | – | – |
| CCCN(CCC)CCOc1ccc(C(=O)NC2C/C(=C\c3cc(Cl)cc(Cl)c3)C(=O)/C(=C/c3cc(Cl)cc(Cl)c3)C2)cc1 (stereo not shown) [JCS062, N-(3,5-Bis((E)-3,5-dichlorobenzylidene)-4-oxocyclohexyl)-4-(2-(dipropylamino)ethoxy)benzamide] | trapped | – | inhibited | – | – |
| CN1CCN(c2ccc(C(=O)NC3C/C(=C\c4ccc(F)c(F)c4)C(=O)/C(=C/c4ccc(F)c(F)c4)C3)cc2)CC1 (stereo not shown) [JCS071, N-(3,5-Bis((E)-3,4-difluorobenzylidene)-4-oxocyclohexyl)-4-(4-methylpiperazin-1-yl)benzamide] | – | higher cell killing potency than JC099 | – | – | – |
| O=C1/C(=C/c2ccc(F)c(F)c2)CC(NC(=O)c2ccc3c(ccn3CCN3CCCC3)c2)C/C1=C\c1ccc(F)c(F)c1 (stereo not shown) [JCS075, N-(3,5-bis((E)-3,4-difluorobenzylidene)-4-oxocyclohexyl)-1-(2-(pyrrolidin-1-yl)ethyl)-1H-indole-5-carboxamide] | – | – | decreased the phosphorylation of Rad17 and CHK1 | increased the accumulation of PARP1 in the chromatin-bound fraction than JC099 | – |
| O=C1/C(=C/c2ccc(F)c(F)c2)CC(NC(=O)c2ccc(OCCN3CCC(N4CCCC4)CC3)cc2)C/C1=C\c1ccc(F)c(F)c1 (stereo not shown) [JCS080, N-(3,5-bis((E)-3,4-difluorobenzylidene)-4-oxocyclohexyl)-4-(2-(4-(pyrrolidin-1-yl)piperidin-1-yl)ethoxy)benzamide] | – | higher cell killing potency than JC099 | – | – | greater ATR inhibition potential |
| N#Cc1cc(NCCN2CCCC2)ccc1C(=O)NC1C/C(=C\c2ccc(F)c(F)c2)C(=O)/C(=C/c2ccc(F)c(F)c2)C1 (stereo not shown) [JCS091, N-(3,5-Bis((E)-3,4-difluorobenzylidene)-4-oxocyclohexyl)-2-cyano-4-((2-(pyrrolidin-1-yl)ethyl)ami-no)benzamide] | – | higher cell killing potency than JC099 | – | higher potency in PARP1-trapping | – |
| O=C1/C(=C/c2ccc(F)c(F)c2)CC(NC(=O)c2cnc(NCCN3CCCC3)cc2C(F)(F)F)C/C1=C\c1ccc(F)c(F)c1 (stereo not shown) [JCS094, N-(3,5-Bis((E)-3,4-difluorobenzylidene)-4-oxocyclohexyl)-6-((2-(pyrrolidin-1-yl)ethyl)amino)-4-(trifluoromethyl)nicotinamide] | – | – | – | higher potency in PARP1-trapping | their potencies were close to JC099 |
| CCN(CCOC)CCOc1ccc(C(=O)NC2C/C(=C\c3ccc(F)c(F)c3)C(=O)/C(=C/c3ccc(F)c(F)c3)C2)cc1 (stereo not shown) [JCS109, N-(3,5-Bis((E)-3,4-difluorobenzylidene)-4-oxocyclohexyl)-4-(2-(ethyl(2-methoxyethyl)amino)eth-oxy)benzamide] | – | – | – | higher potency in PARP1-trapping | greater ATR inhibition potential |
| COCCN(CCOc1ccc(C(=O)NC2C/C(=C\c3ccc(F)c(F)c3)C(=O)/C(=C/c3ccc(F)c(F)c3)C2)cc1)CC1CCCO1 (stereo not shown) [JCS110, N-(3,5-Bis((E)-3,4-difluorobenzylidene)-4-oxocyclohexyl)-4-(2-((2-methoxyethyl)((tetrahydrofuran-2-yl)methyl)amino)ethoxy)benzamide] | – | moderate potency of cell killing, whereas less than JC099 | – | – | greater ATR inhibition potential |
| CCN(CC)CCOc1ccc(C(=O)NC2C/C(=C\c3ccc(F)c(F)c3)C(=O)/C(=C/c3ccc(F)c(F)c3)C2)cc1OC (stereo not shown) [JCS111, N-(3,5-Bis((E)-3,4-difluorobenzylidene)-4-oxocyclohexyl)-4-(2-(diethylamino)ethoxy)-3-methoxy-benzamide] | – | moderate potency of cell killing, whereas less than JC099 | – | – | their potencies were close to JC099 |
| CCN(CC)CCOc1nncc2cc(C(=O)NC3C/C(=C\c4ccc(F)c(F)c4)C(=O)/C(=C/c4ccc(F)c(F)c4)C3)ccc12 (stereo not shown) [JCS133, N-(3,5-Bis((E)-3,4-difluorobenzylidene)-4-oxocyclohexyl)-1-(2-(diethylamino)ethoxy)phthalazine-6-carboxamide] | – | – | – | higher potency in PARP1-trapping | their potencies were close to JC099 |
| CCN1CCC[C@H]1CNc1ccc(C(=O)NC2C/C(=C\c3cc(F)c(F)c(F)c3)C(=O)/C(=C/c3cc(F)c(F)c(F)c3)C2)cc1 (stereo partly drawn) [JCS142, 4-((((S)-1-Ethylpyrrolidin-2-yl)methyl)amino)-N-(4-oxo-3,5-bis((E)-3,4,5-trifluorobenzylidene)-cyclohexyl)benzamide] | – | higher cell killing potency than JC099 | – | – | greater ATR inhibition potential |
| CCN(CC)CCOc1ccc(C(=O)NC2C/C(=C\c3ccc(F)cc3)C(=O)/C(=C/c3ccc(F)cc3)C2)cc1 (stereo not shown) [JCS149, N-(3,5-Bis((E)-4-fluorobenzylidene)-4-oxocyclohexyl)-4-(2-(diethylamino)ethoxy)benzamide] | – | – | – | their potencies were less than JC099 | less ATR inhibition potencies |
| O=C1/C(=C/c2ccc(F)c(F)c2)CC(NC(=O)c2ccc(OCCNN3CCCCC3)cc2)C/C1=C\c1ccc(F)c(F)c1 (stereo not shown) [JCS150, N-(3,5-Bis((E)-3,4-difluorobenzylidene)-4-oxocyclohexyl)-4-(2-(piperidin-1-ylamino)ethoxy)-benzamide] | – | – | – | their potencies were less than JC099 | their potencies were close to JC099 |
| O=C1/C(=C/c2ccc(F)c(F)c2)CC(NC(=O)c2ccc(OCCN3CC4(COC4)C3)cc2)C/C1=C\c1ccc(F)c(F)c1 (stereo not shown) [JCS151, 4-(2-(2-Oxa-6-azaspiro[3.3]heptan-6-yl)ethoxy)-N-(3,5-bis((E)-3,4-difluorobenzylidene)-4-oxocyclohexyl)benzamide] | – | – | – | their potencies were less than JC099 | their potencies were close to JC099 |
| CCN(CC)CCOc1ccc(C(=O)NC2C/C(=C\c3ccc(F)c(F)c3F)C(=O)/C(=C/c3ccc(F)c(F)c3F)C2)cc1 (stereo not shown) [JCS159, 4-(2-(Diethylamino)ethoxy)-N-(4-oxo-3,5-bis((E)-2,3,4-trifluorobenzylidene)cyclohexyl)benzamide] | – | – | – | higher potency in PARP1-trapping | less ATR inhibition potencies |
| CN1CCC[C@H]1CNc1ccc(C(=O)NC2C/C(=C\c3ccc(F)c(F)c3)C(=O)/C(=C/c3ccc(F)c(F)c3)C2)cc1 (stereo partly drawn) [JCS160, N-(3,5-Bis((E)-3,4-difluorobenzylidene)-4-oxocyclohexyl)-4-((((S)-1-methylpyrrolidin-2-yl)methyl)-amino)benzamide] | – | – | – | their potencies were less than JC099 | greater ATR inhibition potential |
| CN1CCC[C@H]1CNc1ncc(C(=O)NC2C/C(=C\c3ccc(F)c(F)c3)C(=O)/C(=C/c3ccc(F)c(F)c3)C2)cn1 (stereo partly drawn) [JCS161, N-(3,5-Bis((E)-3,4-difluorobenzylidene)-4-oxocyclohexyl)-2-((((S)-1-methylpyrrolidin-2-yl)methyl)-amino)pyrimidine-5-carboxamide] | – | higher cell killing potency than JC099 | – | – | – |
| CCCN(CCC)CCOc1ccc(C(=O)NC2C/C(=C\c3ccc(F)c(F)c3)C(=O)/C(=C/c3ccc(F)c(F)c3)C2)cc1 (stereo not shown) [JCSO11] | – | higher cell killing potency than JC099 | – | – | – |
